Data published in patent EP0090510A2, “O-carbamoyl salicylates and their preparation” (Council of Scientific and Industrial Research, priority 1983, dated 1983).

Assays:
Type in all cases: in vivo
Conditions in all cases: Dose : 200 mg/kg
[1] = Anti-inflammatory, edema test
[2] = Analgesic protection, writhing test; set-up: unit not given here
[3] = Anti-inflammatory, granuloma test

Molecule | Anti-inflammatory %Inhibition Raw edema [1] | Analgesic protection Writhing [2] | Anti-inflammatory %Inhibition Granuloma [3]
NC(=O)Oc1ccccc1C(=O)Oc1ccccc1Cl [compound 5] | 35.00% | 70.00 | 35.06%
NC(=O)Oc1ccccc1C(=O)Oc1ccc(Cl)cc1Cl [compound 7] | 28.77% | 76.00 | 34.40%
Cc1cccc(OC(=O)c2ccccc2OC(N)=O)c1 [compound 8] | 48.50% | 84.00 | 33.25%
O-Carbamoyl (3-pentadecylphenyl) salicylate [Sl. No. 10] | 34.85% | 67.00 | 19.79%
Cc1cc(OC(=O)c2ccccc2OC(N)=O)ccc1Cl [compound 9] | 28.90% | 68.00 | 24.04%
NC(=O)Oc1ccccc1C(=O)Oc1ccccc1 [compound 4] | 93.19% | 72.00 | 57.65%
CCCCCCCCCCCCCCCc1cccc(OC(=O)c2ccccc2OC(N)=O)c1 [compound 10] | 12.10% | 45.00 | 33.55%
O-Carbamoyl phenylsalicylate [Sl. No. 4] | 34.86% | 95.00 | 28.63%
NC(=O)Oc1ccccc1C(=O)Oc1ccc(Cl)cc1 [compound 6] | 37.88% | 83.00 | 41.45%
O-Carbamoyl ethylsalicylate [Sl. No. 2] | 76.23% | 69.78 | 46.32%
